Assay results taken from publication PMC12680861, “Comparative analysis of LJ-4378 and tirzepatide in mouse models of obesity and weight regain” (Archives of Pharmacal Research, 2025).

Experiments:
Type in all cases: in vivo, C57BL/6 J male mice
HFD-fed mice [1] = test: Hepatic PKA signaling (immunoblot, liver); details: P-HSL/HSL, P-CREB/CREB
Method: To evaluate the anti-obesity effect in vivo, mice fed either NCD or HFD for 10 weeks were subsequently treated for up to 4 weeks. To control for injection route-related variables, all mice received both intraperitoneal (I.P.) and subcutaneous (S.C.) injections. […]
For protein extraction, we utilized PRO-RERP Protein Extraction Solution (17081, iNtRON Biotechnology, Gyeonggi-do, Korea), supplemented with […] […] Protein concentrations were determined using the Pierce BCA protein assay Kit (#23227, Thermo Fisher, Waltham, Massachusetts, USA) by measuring absorbance at 562 nm with a MultiSkan GO spectrophotometer (Thermo Fisher). The quantified proteins were loaded and separated in 12% SDS-PAGE gels and transferred to polyvinylidene difluoride (PVDF) membranes (Bio-Rad, Hercules, CA, USA). […] After secondary antibody incubation, membranes were washed 3 times with TBST and detected with the Fusion Solo chemiluminescence imaging system (Vilber Lourmat, France). EvolutionCapt (version 17.03) software and the ImageJ (National Institutes of Health, Bethesda, MD, USA) program were used for analysis and to quantify the protein level.
Western blot analysis of P-HSL/HSL and P-CREB/CREB in liver. […] Statistical significance was determined using two-way ANOVA followed by Bonferroni post hoc test.

WR mice = test: WR model: glucose metabolism, gWAT inflammation, hepatic steatosis at 4 weeks post-treatment; details: for macrophage marker F4/80 and CLS formation in gWAT: 4 weeks of the weight regaining phase
Excerpt: (§1) To assess post-treatment weight rebound (WR), the mice previously treated with vehicle, LJ-4378, or TZP were maintained on HFD for an additional 4 weeks following treatment cessation. Treatment protocols for the WR groups were identical to those of the HFD groups. In total, nine experimental groups were established: NCD + CTL, NCD + LJ, NCD + TZP; HFD + CTL, HFD + LJ, HFD + TZP; and WR + CTL, WR + LJ, WR + TZP. The volume of oxygen consumed (VO2), carbon dioxide produced (VCO2), respiratory exchange ratio (RER), energy expenditure, activity, and food intake were measured with PhenoMaster (TSE Systems, Bad Homburg, Germany). Indirect calorimetry was performed under controlled conditions, with a stable ambient temperature of 24 °C and a 12 h light/12-h dark cycle. Mice fed HFD were administered vehicle, LJ-4378, or TZP for 14 days, and the last 2 days of treatment were conducted during indirect calorimetry analysis. The WR model was examined by indirect calorimetry after 2 and 4 weeks of the weight regaining phase.
(§2) For protein extraction, we utilized PRO-RERP Protein Extraction Solution (17081, iNtRON Biotechnology, Gyeonggi-do, Korea), supplemented with […] Protease Inhibitor (S8820, Sigma, St. Louis, MO, USA) and PhosSTOP phosphatase inhibitor (#4906837001, Roche, Basel, Switzerland). Protein concentrations were determined using the Pierce BCA protein assay Kit (#23227, Thermo Fisher, Waltham, Massachusetts, USA) by measuring absorbance at 562 nm with a MultiSkan GO spectrophotometer (Thermo Fisher). The quantified proteins were loaded and separated in 12% SDS-PAGE gels and transferred to polyvinylidene difluoride (PVDF) membranes (Bio-Rad, Hercules, CA, USA). Membranes were blocked in 5% bovine serum albumin or skim milk in Tris-buffered saline with 0.1% Tween 20 (TBST) for 1 h, followed by overnight incubation with primary antibodies. The next day, membranes were washed 3 times with TBST and incubated for 1 h with horseradish peroxidase (HRP)-conjugated secondary antibody: Goat anti-rabbit (1:3000, #31460, Thermo Fisher) and Goat anti-Mouse IgG (1:3000, 115–035-174, Jackson ImmunoResearch). After secondary antibody incubation, membranes were washed 3 times with TBST and detected with the Fusion Solo chemiluminescence imaging system (Vilber Lourmat, France). EvolutionCapt (version 17.03) software and the ImageJ (National Institutes of Health, Bethesda, MD, USA) program were used for analysis and to quantify the protein level.
(§3) RT-qPCR was conducted according to the method (Cho et al. [2022]). The tissue samples were lysed in TRIzol (#15596018, Thermo Fisher), and the total RNA was extracted. The extracted RNA was synthesized into cDNA using the cDNA Reverse Transcription Kit (Applied Biosystems, Waltham, MA, USA). mRNA levels were quantified using iQ SYBR Green Supermix on the CFX Connect Real-time system (Bio-rad). Relative expression levels of each gene were calculated using the […] method, with the reference housekeeping gene as follows: Peptidylprolyl isomerase A (Ppia) for adipose tissue and glyceraldehyde-3-phosphate dehydrogenase (Gapdh) for hypothalamus.
The glucose tolerance test was conducted on mice fasted for 12 h with ad libitum access to water. Mice were intraperitoneally injected with 20% D-( +)-glucose (2 g/kg body weight, #49139, Sigma), and blood glucose levels were measured at each time point using a Gluco Doctor Top meter and strip (Allmedicus, South Korea).
Adipose tissues were fixed in 10% formalin (HT50128, Sigma) for 2 days and made into paraffin slides. The deparaffinized sections were stained with ClearView Staining Hematoxylin (MA010081, BBC Biochemical, Mount Vernon, WA, USA) and Eosin Y Alcoholic (#3610, BBC Biochemical) solution. The crown-like structure formation of gonadal white adipose tissue (gWAT) and triglyceride (TG) accumulation in the liver are observed using hematoxylin and eosin staining on paraffin slides. The images were captured using Nikon Elements (NIS BR Analysis ver 5.10.00). […]

HFD-fed mice [2] = test: Glucose tolerance test and fasting glucose in HFD-fed mice; details: for fasting glucose levels: 12-h fast; for glucose tolerance (intraperitoneal glucose tolerance test): 14 days treatment
HFD-fed mice [3] = test: Indirect calorimetry and food intake in HFD-fed mice; details: for energy expenditure adjusted for body weight and lean body mass (ANCOVA) / food intake (indirect calorimetry): HFD-fed mice; for VO2, VCO2 and energy expenditure: relative to HFD controls, last 2 days of 14-day treatment
Method: (§4) To evaluate the anti-obesity effect in vivo, mice fed either NCD or HFD for 10 weeks were subsequently treated for up to 4 weeks. To control for injection route-related variables, all mice received both intraperitoneal (I.P.) and subcutaneous (S.C.) injections. The administration were as follows: LJ-4378 treated mice received LJ-4378, which was synthesized in our laboratory at > 95% purity (1 mg/kg/day, I.P.) (Hou et al. [2010]; Kim et al. [2022]) along with the vehicle for TZP (40 mM Tris–HCl, pH 8, S.C.); TZP treated mice received TZP (Samms et al. [2021]; Kim et al. [2022]) (LY3298176, MedChemExpress, Monmouth Junction, NJ, USA) (10 nmol/kg/day, S.C.) along with the vehicle for LJ-4378 (0.2% DMSO, I.P.); vehicle control mice received both vehicles (0.2% DMSO, I.P. and 40 mM Tris–HCl, pH 8, S.C.)
as §1

HFD-fed mice [4] = test: Adipose tissue (gWAT) and systemic inflammation in HFD-fed mice; details: for serum TNF-α levels: ELISA; for macrophage accumulation in gWAT (F4/80 protein, crown-like structures): compared with HFD controls
Method: as §4
The serum TNF-α level was measured using TNF-alpha ELISA MTA00B (R&D system) in accordance with the manufacturer’s protocol.
as §2, §3
Adipose tissues were fixed in 10% formalin (HT50128, Sigma) for 2 days and made into paraffin slides. The deparaffinized sections were stained with ClearView Staining Hematoxylin (MA010081, BBC Biochemical, Mount Vernon, WA, USA) and Eosin Y Alcoholic (#3610, BBC Biochemical) solution. The crown-like structure formation of gonadal white adipose tissue (gWAT) and triglyceride (TG) accumulation in the liver are observed using hematoxylin and eosin staining on paraffin slides. The images were captured using Nikon Elements (NIS BR Analysis ver 5.10.00).

| Compound | phosphorylation of downstream targets of PKA in the liver (HFD-fed mice [1]) | macrophage marker F4/80 and CLS formation in gWAT (WR mice) | fasting glucose levels, versus TZP-treated group (WR mice; 4 weeks post-treatment, WR) | glucose clearance in glucose tolerance test, versus TZP-treated group (WR mice; 4 weeks post-treatment, WR) | hepatic triglyceride (TG) deposition, versus TZP (WR mice; 4 weeks post-treatment, WR) | Tnf-α and Arg1 mRNA levels in gWAT (WR mice; after 4 weeks of WR) | fasting glucose levels (HFD-fed mice [2]) | glucose tolerance (intraperitoneal glucose tolerance test) (HFD-fed mice [2]) | energy expenditure adjusted for body weight and lean body mass (ANCOVA) (HFD-fed mice [3]) | food intake (indirect calorimetry) (HFD-fed mice [3]) | VO2, VCO2 and energy expenditure (HFD-fed mice [3]) | serum TNF-α levels (HFD-fed mice [4]; HFD-fed mice) | Adgre1 and Tnf-α expression in gWAT (HFD-fed mice [4]; HFD-fed mice, RT-qPCR) | M2-like macrophage markers (Arg1, Clec10a, Chil3, Il-10) in gWAT (HFD-fed mice [4]; HFD-fed mice, RT-qPCR) | macrophage accumulation in gWAT (F4/80 protein, crown-like structures) (HFD-fed mice [4]) |
| --- | --- | --- | --- | --- | --- | --- | --- | --- | --- | --- | --- | --- | --- | --- | --- |
| CCCCC#Cc1nc(N)c2ncn([C@@H]3SC[C@@H](O)[C@H]3O)c2n1 [LJ-4378] | Neither LJ-4378 nor TZP altered the phosphorylation | maintained lower levels of macrophage accumulation | lower | enhanced glucose clearance | significantly lower | reduced Tnf-α and increased Arg1 mRNA levels were maintained | significantly lower | markedly enhanced | consistently increased energy expenditure | did not affect the feeding behavior | significantly increased | reduced | remarkably suppressed | selectively upregulated | significantly reduced |
| Tirzepatide [TZP, reference compound] | Neither LJ-4378 nor TZP altered the phosphorylation | re-elevated |  |  |  |  | significantly lower | markedly enhanced | not significant when LBM was used as the covariate | reduced food consumption | significantly increased | reduced | remarkably suppressed |  | significantly reduced |
